These results are taken from patent publication US20080161378A1, “Novel Therapeutic Agent For Amyotrophic Lateral Sclerosis (Als) or Diseases Caused by Als” (priority 2004, published 2008).

The test system of data set [1] is ALS. To be noted: Non-Patent Documents 1-5; cited from earlier work.
For data set [2], the system named is patients of ALS. The data set is described as follows: Efficacy evaluation 6 months after administration based on ALSFRS-R (cumulative differences). The data set is classed as in vivo, human. The following applies: for Suppression rate (rate of "suppressed") in accordance with ALSFRS-R / Assessment based on cumulative differences in accordance with ALSFRS-R: Suppressed (number of cases): i.v. once daily; for Suppression rate (rate of "suppressed") in accordance with ALSFRS-R: 6 administration periods; for Assessment based on cumulative differences in accordance with ALSFRS-R: Suppressed (number of cases): 6 administration periods with drug holidays, suppressed = ratio between cumulative differences 50% or less; for Assessment based on cumulative differences in accordance with ALSFRS-R: No change (number of cases): no change = ratio 100% or more; for Assessment based on cumulative differences in accordance with ALSFRS-R: Slightly suppressed (number of cases): slightly suppressed = ratio more than 50% and less than 100%. On the procedure:
1 ampule of “Radicut injection 30 mg” (containing 30 mg of edaravone, produced and marketed by Mitsubishi Pharma Corporation) was intravenously administered once daily to 5 patients of ALS. Single daily administration of the medicament took 30 minutes, and the administration was carried out for 14 consecutive days (the 1st administration period). […] Thereafter, intravenous administration of the medicament was carried out for 10 days (with no administration on Saturdays, Sundays, and national holidays) in the manner described above (the 2nd administration period). Then, treatments similar to those carried out in the 2nd administration period were repeated 4 times (the 3rd to 6th administration periods).
2 ampules of the aforementioned “Radicut injection 30 mg” were intravenously administered once daily to 14 patients of ALS. Single daily administration of the medicament took 60 minutes, and the administration was carried out for 14 consecutive days (the 1st administration period). […] Thereafter, the intravenous administration of the medicament was carried out for 10 days (with no administration on Saturdays, Sundays, and national holidays) in the manner described above (the 2nd administration period). Then, treatments similar to those carried out in the 2nd administration period were repeated 4 times (the 3rd to 6th administration periods).
In accordance with ALSFRS-R, the score at a time point “before the 1st administration period” (*) was determined to be a base point based on comparison of changes “before administration” and changes “during administration.” Then, patients were evaluated in the following manner.
• Difference at each time point before administration=(* before the 1st administration period)−(time point 1, 2 3, 4, 5 or 6 before administration) • Difference at each time point during administration=(time point i, ii, iii, iv, v, or vi before each administration period)−(* before the 1st administration period)
The sum of differences at time points before administration (defined as A)
A=(*−1)+(*−2)+(*−3)+(*−4)+(*−5)+(*−6)
The sum of differences at time points during administration (defined as B)
B=(i−*)+(ii−*)+(iii−*)+(iv−*)+(v−*)+(vi−*)
Averages of the sums of differences obtained in 2) were calculated so as to obtain cumulative differences. (The sums were divided by 6, based on 6 time points 1 to 6 before administration and 6 time points i to vi during administration).
Cumulative difference before administration=A/6
Cumulative difference during administration=B/6
Based on the averages obtained in 3), the ratio of cumulative difference before administration (A/6) to cumulative difference during administration (B/6) was expressed by the following formula:
(Formula)cumulative difference during administration/cumulative difference before administration×100.
Ratio between cumulative differences(%)=(B/6)/(A/6)×100.
Based on the “ratio between cumulative differences” obtained in 4), efficacy evaluation was made in accordance with the following criteria.

Data set [3] deals with patients of ALS. The data set is described as follows: Efficacy evaluation 6 months after administration based on % FVC (percent predicted forced vital capacity). The data set is classed as in vivo, human. The following applies: for average rate of decrease of % FVC: before 1st administration period vs end of 6th administration period. The protocol:
The term “% FVC” stands for percent predicted forced vital capacity; it is generally used as an index in a method for objectively evaluating respiratory function in ALS patients (ALS treatment guidelines 2002). In addition, in the case of ALS patients (placebo group), the rate of decrease of % FVC for during 6 months is 13.8% (The BDNF Study Group (Phase III), Neurology, 52, 1427 (1999)).
1 ampule of the aforementioned “Radicut injection 30 mg” was intravenously administered once daily to 4 patients of ALS. Single daily administration of the medicament took 30 minutes, and it was carried out for 14 consecutive days (the 1st administration period). […] Thereafter, intravenous administration of the medicament was carried out for 10 days (with no administration on Saturdays, Sundays, and national holidays) in the manner described above (the 2nd administration period). Then, treatments similar to those carried out in the 2nd administration period were repeated 4 times (the 3rd to the 6th administration periods).
The % FVC for each patient was determined using a chestac-11 (Chest). The average rate of decrease of % FVC was 9.3% when comparing % FVC before the 1st drug administration period and that at the end of the 6th drug administration period.
2 ampules of “Radicut injection 30 mg” (each of which contained 30 mg of edaravone) were intravenously administered once daily to 12 patients of ALS. Single daily administration of the medicament took 60 minutes and it was carried out for 14 consecutive days (the 1st administration period). […] Thereafter, intravenous administration of the medicament was carried out for 10 days (with no administration on Saturdays, Sundays, and national holidays) in the manner described above (the 2nd administration period). […]
The % FVC for each patient was determined using a chestac-11 (Chest), as with the case of the 30 mg group. […] In addition, partial pressure of arterial carbon dioxide (PaCO2) was determined. The PaCO2 of each patient was determined using a blood gas analyzer (Bayer 850; Bayer Medical).

The subject of data set [4] is patients of ALS. Kind of data set: Partial pressure of arterial carbon dioxide (PaCO2), blood gas analyzer. It counts as in vivo, human. On the procedure: 2 ampules of “Radicut injection 30 mg” (each of which contained 30 mg of edaravone) were intravenously administered once daily to 12 patients of ALS. Single daily administration of the medicament took 60 minutes and it was carried out for 14 consecutive days (the 1st administration period). […] Thereafter, intravenous administration of the medicament was carried out for 10 days (with no administration on Saturdays, Sundays, and national holidays) in the manner described above (the 2nd administration period). Then, treatments similar to those carried out in the 2nd administration period were repeated 4 times (the 3rd to the 6th administration periods).
The % FVC for each patient was determined using a chestac-11 (Chest), as with the case of the 30 mg group. The average rate of decrease of % FVC was 4.5% when comparing % FVC before the 1st drug administration period and that at the end of the 6th drug administration period. In addition, partial pressure of arterial carbon dioxide (PaCO2) was determined. The PaCO2 of each patient was determined using a blood gas analyzer (Bayer 850; Bayer Medical).

Data set [5] has as its system patients of ALS. The data set is described as follows: Safety evaluation 6 months after administration, clinical laboratory test. It counts as in vivo, human. To be noted: for BUN / CK / Creatinine / GOT / GPT / γ-GTP: average of patients of Example 2. On the procedure: The patients of Example 2 were each subjected to a clinical laboratory test.
The following components were determined before and after drug administration using a large automated multichannel analyzer (automatic analyzer 7600-020s; Hitachi).

Setting [6] is: overall conclusion of Example 2.
[7] abbreviates: before administration (baseline).

For “RhIGF-1: medicament examined as potential medicament for treating ALS”, the “prevention of decreased respiratory function in ALS” value in data set [1] is given as “cannot prevent decreased respiratory function”.
For `NCC1(CC(=O)O)CCCCC1` [gabapentin], the “prevention of decreased respiratory function in ALS” value in data set [1] was “cannot prevent decreased respiratory function”.
Take `CC1=NN(c2ccccc2)C(=O)C1` [Radicut injection 30 mg, 3-methyl-1-phenyl-2-pyrazolin-5-one]: in data set [2] (30 mg group (5 ALS patients)), the “Suppression rate (rate of "suppressed") in accordance with ALSFRS-R” value was 20%, the “Assessment based on cumulative differences in accordance with ALSFRS-R: Suppressed (number of cases)” value was determined as 1, the “Assessment based on cumulative differences in accordance with ALSFRS-R: No change (number of cases)” value is 1 and the “Assessment based on cumulative differences in accordance with ALSFRS-R: Slightly suppressed (number of cases)” value was determined as 3. Besides, in data set [2] (60 mg group (14 ALS patients)), the “Suppression rate (rate of "suppressed") in accordance with ALSFRS-R” value is 50%, the “Assessment based on cumulative differences in accordance with ALSFRS-R: Suppressed (number of cases)” value turned out to be 7, the “Assessment based on cumulative differences in accordance with ALSFRS-R: No change (number of cases)” value is on record as 6 and the “Assessment based on cumulative differences in accordance with ALSFRS-R: Slightly suppressed (number of cases)” value turned out to be 1. Moreover, in data set [3] (30 mg group (4 ALS patients)), the “average rate of decrease of % FVC” value is recorded as 9.3%. In data set [3] (60 mg group (12 ALS patients)), the “average rate of decrease of % FVC” value was 4.5%. Further, the “decrease of % FVC in ALS patients” value in data set [3] (setting [6]) is reported as “significantly suppressed”. For the same molecule, the “PaCO2 values before the 1st administration period and after the end of the 6th administration period” value in data set [4] (60 mg group (12 ALS patients)) was “almost the same”. For the same molecule, the “increase of PaCO2 in ALS patients” value in data set [4] (setting [6]) is “significantly suppressed”. Further, in data set [5] (after administration), the BUN is 14.3 mg/dL, the CK came out at 135.6 IU/L, the Creatinine came out at 0.6 mg/dL and the GOT worked out at 19.1 IU/L. For the same molecule, in data set [5] (after administration), the GPT was 19.6 IU/L and the γ-GTP amounted to 25.3 IU/L. In data set [5] (setting [7]), this molecule returned a BUN of 14.1 mg/dL, a CK of 165.3 IU/L, a Creatinine of 0.6 mg/dL and a GOT of 21.3 IU/L. In data set [5] (setting [7]), this molecule displayed a GPT of 22.2 IU/L and a γ-GTP of 31.6 IU/L. For the same molecule, the “clinical laboratory values after administration (safety)” value in data set [5] (patients of Example 2, 6 months after administration) is “did not increase to abnormal levels”.
As to `CC(=O)N[C@@H](CS)C(=O)O` [N-acetylcysteine], the “prevention of decreased respiratory function in ALS” value in data set [1] was “cannot prevent decreased respiratory function”.

B1: BDNF: medicament examined as potential medicament for treating ALS (protein, UniProt P23560 19-247, looked up)
Neurotrophic factor BDNF …: APMKEANIRGQGGLAYPGVRTHGTLESVNGPKAGSRGLTSLADTFEHVIEELLDEDQKVRPNEENNKDADLYTSRVMLSSQVPLEPPLLFLLEEYKNYLDAANMSMRVRRHSDPARRGELSVCDSISEWVTAADKKTAVDMSGGTVTVLEKVPVSKGQLKQYFYETKCNPMGYTKEGCRGIDKRHWNSQCRTTQSYVRALTMDSKKRIGWRFIRIDTSCVCTLTIKRGR
In the case of B1, the “prevention of decreased respiratory function in ALS” value in data set [1] is “cannot prevent decreased respiratory function”.
